Entries after “also recorded” stand apart in the source; their conditions may differ.
Columns and labels:
[1] = molecular target: T1, PT-biotin binding to fetuin (Bos taurus, UniProt P12763); assay: PT-biotin binding to fetuin, binding inhibition assay; set-up: species or system Bordetella pertussis; conditions: for Percent Changes in Binding Activity PT/fetuin: peptide mg/mL: S2PL 1.2, ACS2P1 1.0, S2(14-2.3) 1.0, S2P2 1.1, S2P3 0.51, S2P4 0.98, S2P6 0.85, S3P1 3.2, S3P2 3.1, S3P3 4.5, S3P4 3.3, S3P5 0.48, S3P9a 1.7, SPYGRC 4.4, S2(WGA) 1.0, WGA (62-73) 1.0, + enhancement, − inhibition
T1 construct: purchased Sigma Chemical Company (fetuin); Connaught Center for Biotechnology Research (PT)
T1 sequence (P12763 19-359): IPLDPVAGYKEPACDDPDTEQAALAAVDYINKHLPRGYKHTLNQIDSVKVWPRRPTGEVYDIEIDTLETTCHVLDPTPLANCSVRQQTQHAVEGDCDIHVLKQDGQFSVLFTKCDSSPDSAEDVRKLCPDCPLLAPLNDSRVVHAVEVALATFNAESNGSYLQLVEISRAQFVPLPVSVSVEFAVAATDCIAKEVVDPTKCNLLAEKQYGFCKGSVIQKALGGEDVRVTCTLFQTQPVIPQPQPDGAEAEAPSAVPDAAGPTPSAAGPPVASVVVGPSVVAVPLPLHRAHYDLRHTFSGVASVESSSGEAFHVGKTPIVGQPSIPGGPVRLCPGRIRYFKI
Procedure: (§1) Peptides ranging in concentration from 0.5 to 4.5 mg/ml in PBS (40 μl) were added to each well and PT-biotin (10 μl containing 10 ng in PBS) was then added to the microtiter wells. […] Horseradish peroxidase-conjugated avidin (100 μl, 1/3000 dilution in PBST to a concentration of 0.3 μg/ml) was then added to the wells, and the plates were incubated at ambient temperature for 1 hour. […] Color development was recorded at 405 nm using a Titertek Multiskan MC plate reader. […] Binding assays for each peptide were done in duplicate. Binding inhibition experiments utilizing SNA-, WGA-, and MAL-biotin were performed as described above using 10 ng of each biotinylated lectin in PBS.
(§2) Binding assays for each inhibitor concentration were done at least in duplicate, and the average value varied less than 15%.

[2] = molecular target: T2, PT-biotin binding to asialofetuin (Bos taurus, UniProt P12763); assay: PT-biotin binding to asialofetuin, binding inhibition assay; set-up: species or system Bordetella pertussis; conditions: for Percent Changes in Binding Activity PT/asialo-fetuin: peptide mg/mL: S2PL 1.2, ACS2P1 1.0, S2P2 1.1, S2P3 0.51, S2P4 0.98, S2P6 0.85, S3P1 3.2, S3P2 3.1, S3P3 4.5, S3P4 3.3, S3P5 0.48, SPYGRC 4.4, + enhancement, − inhibition
T2 construct: made in house
T2 sequence (P12763 19-359): T1 sequence (P12763 19-359)
Procedure: as §1, §2

[3] = molecular target: T3, WGA-biotin binding to fetuin (Bos taurus, UniProt P12763); assay: biochemical; conditions: for Percent Changes in Binding Activity WGA/fetuin: peptide mg/mL: S2PL 1.2, ACS2P1 1.0, S2(14-2.3) 1.0, S2P2 1.1, S2P3 0.51, S2P4 0.98, S2P6 0.85, S3P1 3.2, S3P2 3.1, S3P3 4.5, S3P4 3.3, S3P5 0.48, SPYGRC 4.4, S2(WGA) 1.0, WGA (62-73) 1.0, + enhancement, − inhibition
T3 sequence (P12763 19-359): T1 sequence (P12763 19-359)
Procedure: (§3) The solution was removed by aspiration and replaced with 100 μl of 1% BSA in PBS containing 0.05% Tween 20 (PBST). After incubation for 2-4 hours at room temperature, the microtiter wells were washed four times with 300 μl of PBST. Peptides ranging in concentration from 0.5 to 4.5 mg/ml in PBS (40 μl) were added to each well and PT-biotin (10 μl containing 10 ng in PBS) was then added to the microtiter wells. After incubating for 1 hour, the binding reaction was stopped by aspirating the solutions and the plate was washed with PBST (300 μl). Horseradish peroxidase-conjugated avidin (100 μl, 1/3000 dilution in PBST to a concentration of 0.3 μg/ml) was then added to the wells, and the plates were incubated at ambient temperature for 1 hour. After washing the wells as described above, the substrate solution [1 mM ABTS in 5 mM citrate buffer, pH 4.2, containing 0.1% hydrogen peroxide, v/v) was added and the plates were incubated for 30 minutes. Color development was recorded at 405 nm using a Titertek Multiskan MC plate reader. Maximum binding was determined in the absence of peptide, and background binding was measured in wells coated with BSA only. Binding assays for each peptide were done in duplicate. Binding inhibition experiments utilizing SNA-, WGA-, and MAL-biotin were performed as described above using 10 ng of each biotinylated lectin in PBS.

[4] = molecular target: T4, SNA-biotin binding to fetuin (Bos taurus, UniProt P12763); assay: biochemical; conditions: peptide mg/mL: S2PL 1.2, ACS2P1 1.0, S2(14-2.3) 1.0, S2P2 1.1, S2P3 0.51, S2P4 0.98, S2P6 0.85, S3P1 3.2, S3P2 3.1, S3P3 4.5, S3P4 3.3, S3P5 0.48, S3P9a 1.7, SPYGRC 4.4, S2(WGA) 1.0, WGA (62-73) 1.0; + enhancement, − inhibition
T4 sequence (P12763 19-359): T1 sequence (P12763 19-359)
Procedure: as §3

[5] = molecular target: T5, ACS2P1-biotin binding to fetuin (Bos taurus, UniProt P12763); assay: biochemical; conditions: peptide μM: ACS2P1 4.1, S2P2 42.5, SPYGRC 5520, S2P3 22.4, S2P4 6.0, S2P6 319, S3P1 1142, S3P2 934, S3P3 16.1, S3P4 6.4, S3P5 22.5; ACS2P1-biotin 0.1 μg; − inhibition, + enhancement
T5 construct: purchased Sigma Chemical Company
T5 sequence (P12763 19-359): T1 sequence (P12763 19-359)

[6] = molecular target: T6, MAL-biotin binding to fetuin (Bos taurus, UniProt P12763); assay: MAL-biotin binding to fetuin, binding inhibition assay; set-up: species or system Maackia amurensis; conditions: peptide mg/mL: S2PL 1.2, ACS2P1 1.0, S2(14-2.3) 1.0, S2P2 1.1, S2P3 0.51, S2P4 0.98, S2P6 0.85, S3P1 3.2, S3P2 3.1, S3P3 4.5, S3P4 3.3, S3P5 0.48, S3P9a 1.7, SPYGRC 4.4, S2(WGA) 1.0, WGA (62-73) 1.0; + enhancement, − inhibition
T6 construct: purchased Sigma Chemical Company (fetuin); Boehringer Mannheim (MAL-biotin)
T6 sequence (P12763 19-359): T1 sequence (P12763 19-359)
Procedure: as §1, §2

[7] = molecular target: T7, ACS2P1-biotin binding to asialofetuin (Bos taurus, UniProt P12763); assay: Screening of S2 and S3 peptides for inhibition of ACS2P1-biotin binding to asialofetuin; conditions: peptide μM: ACS2P1 4.1, S2P2 42.5, SPYGRC 5520, S2P3 22.4, S2P4 6.0, S2P6 319, S3P1 1142, S3P2 934, S3P3 16.1, S3P4 6.4, S3P5 22.5; ACS2P1-biotin 0.1 μg; − inhibition, + enhancement
T7 construct: made in house
T7 sequence (P12763 19-359): T1 sequence (P12763 19-359)

Row | Compound | IC50 [1] | Percent Changes in Binding Activity PT/fetuin [1] | Percent Changes in Binding Activity PT/asialo-fetuin [2] | Percent Changes in Binding Activity WGA/fetuin [3] | Percent Changes in Binding Activity SNA/fetuin [4] | Percent Change in Binding Activity Fetuin [5] | Percent Changes in Binding Activity MAL/fetuin [6] | Percent Change in Binding Activity Asialofetuin [7] | effect on PT-biotin binding to asialofetuin, in words [2] | IC50 PT-b (asialofetuin) ([2]; wells coated with 3 μg/ml asialofetuin, 2-fold dilutions of peptide in PBS) | effect on PT-biotin binding to fetuin, in words [1] | enhancement of PT-biotin binding to fetuin relative to control experiments in the absence of peptide ([1]; initial peptide screening) | IC50 [3]
1 | CC[C@H](C)[C@H](NC(=O)[C@@H](NC(=O)[C@@H]1CCCN1C(=O)[C@H](CCC(N)=O)NC(=O)CNC(=O)[C@H](CO)NC(=O)[C@H](CCCNC(=N)N)NC(=O)[C@@H](NC(=O)[C@@H](N)Cc1ccccc1)C(C)C)C(C)C)C(=O)NCC(=O)N[C@@H](C)C(=O)N[C@@H](CS)C(=O)N[C@H](C(=O)N[C@@H](CO)C(=O)N1CCC[C@H]1C(=O)N[C@@H](Cc1ccc(O)cc1)C(=O)N[C@@H](CC(=O)O)C(=O)NCC(=O)N[C@@H](CCCCN)C(=O)N[C@@H](Cc1ccc(O)cc1)C(=O)N[C@@H](Cc1c[nH]c2ccccc12)C(=O)N[C@@H](CO)C(=O)N[C@@H](CCSC)C(=O)N[C@@H](Cc1ccc(O)cc1)C(=O)N[C@@H](CO)C(=O)N[C@@H](CCCNC(=N)N)C(=O)N[C@@H](CC(C)C)C(=O)N[C@@H](CCCNC(=N)N)C(=O)N[C@@H](CCCCN)C(=O)N[C@@H](CCSC)C(=O)N[C@@H](CC(C)C)C(=O)N[C@@H](Cc1ccc(O)cc1)C(=O)O)[C@@H](C)O [Peptide S2P6] | 0.22 ± 0.06 mM | −28 ± 6% | −18(1) Percent | +57 ± 0% | +2 ± 2% | +49 ± 5% | +18 ± 16% | +18 ± 16% |  |  |  |  | 
2 | CASPYEGRYRDMYDALRRLLY [Peptide S3P5] |  | +14 ± 6% | −26 ± 10% | +35 ± 8% | 0(1) Percent | −19 ± 4% | +3 ± 6% | −17 ± 8% | reduce binding of PT to asialofetuin only; also recorded: inhibit PT-biotin's interaction with asialofetuin in a concentration-dependent manner | above the solubility limits of the peptide in PBS |  |  | 
3 | PQEQITQHGSQYGYC [S2 (WGA)] |  | +79 ± 15% |  | −4 ± 3% | 0 ± 1% |  | +22 ± 3% |  |  |  |  |  | 
4 | AGFIYRETFCITTIYKTGQPAADHYYSKVTA [Peptide S3P4] |  | +12 ± 2% | +75 ± 50% | +13 ± 1% | +1(1) Percent | +55 ± 26% | +7 ± 1% | +26 ± 2% |  |  |  |  | 
5 | PQEQITQHGSPYGRC [Peptide S2P1] |  | +85 ± 4% | +113(1) Percent | −18 ± 2% | −5 ± 1% |  | +8 ± 4% |  |  |  | enhancement of binding of PT to fetuin | ~2 fold | 
6 | H-SQYGYCGFGAEY-OH [WGA (62-73)] | 1.5 mM | −32 ± 5% |  | −9 ± 1% | −3 ± 2% |  | −1 ± 4% |  |  |  |  |  | 3.4 mM
7 | TQHGSPYGRC [S2 (14-23)] |  | +68 ± 9% |  | +7 ± 1% | +1 ± 2% |  | +32 ± 1% |  |  |  |  |  | 
8 | Ac-PQEQITQHGSPYGRC-NH2 [ACS2P1] |  | +89 ± 3% | +190 ± 23% |  |  |  | +16 ± 9% | +101 ± 2% |  |  |  |  | 
